pIC50: −log10 of the molar value.
Legend:
[1] = biological target: MAP kinase-activated protein kinase 2 (Homo sapiens, UniProt P49137)
Description: Inhibition of human recombinant MK2

THP-1 = experiment: Inhibition of LPS-stimulated TNFalpha production in human THP1 cells
[2] = biological target: Platelet-derived growth factor receptor alpha (Homo sapiens, UniProt P16234); experiment: Inhibition of PDGFRalpha
[3] = biological target: Ribosomal protein S6 kinase alpha-1 (Homo sapiens, UniProt Q15418); experiment: Inhibition of RSK1
[4] = biological target: Proto-oncogene tyrosine-protein kinase Src (Homo sapiens, UniProt P12931); experiment: Inhibition of SRC
[5] = biological target: Protein kinase C alpha type (Homo sapiens, UniProt P17252); experiment: Inhibition of PKCalpha
Cytochrome P450 2D6 = Cytochrome P450 2D6 (Homo sapiens, UniProt P10635); experiment: Inhibition of CYP2D6; format: ADME
[6] = biological target: Mitogen-activated protein kinase 14 (Homo sapiens, UniProt Q16539); experiment: Inhibition of p38alpha
Cytochrome P450 2C9 = Cytochrome P450 2C9 (Homo sapiens, UniProt P11712); experiment: Inhibition of CYP2C9; format: ADME
[7] = biological target: T1, Inhibitor of nuclear factor kappa-B kinase subunit alpha (Homo sapiens, UniProt O15111); experiment: Inhibition of IKKalpha
T1 sequence (O15111 whole entry): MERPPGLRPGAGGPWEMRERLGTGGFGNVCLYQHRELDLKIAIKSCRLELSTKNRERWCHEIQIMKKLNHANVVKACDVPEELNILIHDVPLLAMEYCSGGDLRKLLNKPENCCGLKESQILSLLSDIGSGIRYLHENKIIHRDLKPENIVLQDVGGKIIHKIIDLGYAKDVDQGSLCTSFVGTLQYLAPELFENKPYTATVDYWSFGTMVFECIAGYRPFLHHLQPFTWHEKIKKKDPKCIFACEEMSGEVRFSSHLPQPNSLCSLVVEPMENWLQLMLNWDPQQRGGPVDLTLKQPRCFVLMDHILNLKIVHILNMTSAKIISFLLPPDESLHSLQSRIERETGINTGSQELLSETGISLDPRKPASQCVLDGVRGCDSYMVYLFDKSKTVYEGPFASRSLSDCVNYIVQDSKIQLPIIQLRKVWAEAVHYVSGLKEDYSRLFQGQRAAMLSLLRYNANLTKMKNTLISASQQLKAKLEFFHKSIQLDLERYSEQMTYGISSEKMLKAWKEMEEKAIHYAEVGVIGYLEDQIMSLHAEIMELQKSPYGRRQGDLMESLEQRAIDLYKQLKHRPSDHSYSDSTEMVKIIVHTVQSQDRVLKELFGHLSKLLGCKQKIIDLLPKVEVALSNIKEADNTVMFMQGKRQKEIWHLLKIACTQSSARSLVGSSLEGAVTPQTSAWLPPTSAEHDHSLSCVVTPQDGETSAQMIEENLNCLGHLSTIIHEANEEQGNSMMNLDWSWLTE

Cytochrome P450 3A4 = Cytochrome P450 3A4 (Homo sapiens, UniProt P08684); experiment: Inhibition of CYP3A4; format: ADME
[8] = biological target: Tyrosine-protein kinase Fyn (Homo sapiens, UniProt P06241); experiment: Inhibition of FYN
Aurora kinase B = Aurora kinase B (Homo sapiens, UniProt Q96GD4); experiment: Inhibition of Aurora B
[9] = biological target: Casein kinase I isoform gamma-1 (Homo sapiens, UniProt Q9HCP0); experiment: Inhibition of CK1-gamma1
[10] = biological target: Mitogen-activated protein kinase 1 (Homo sapiens, UniProt P28482); experiment: Inhibition of ERK2
CYP2C9 = CYP2C9 (Homo sapiens, UniProt P11712); experiment: Inhibition of CYP2C9 at 3 uM; format: ADME
CYP3A4 = CYP3A4 (Homo sapiens, UniProt P08684); experiment: Inhibition of CYP3A4 at 3 uM; format: ADME
CYP2D6 = CYP2D6 (Homo sapiens, UniProt P10635); experiment: Inhibition of CYP2D6 at 3 uM; format: ADME
[11] = biological target: Rho-associated protein kinase 1 (Homo sapiens, UniProt Q13464); experiment: Inhibition of ROCK1

Chain of Aurora kinase B (Q96GD4 whole entry, canonical isoform): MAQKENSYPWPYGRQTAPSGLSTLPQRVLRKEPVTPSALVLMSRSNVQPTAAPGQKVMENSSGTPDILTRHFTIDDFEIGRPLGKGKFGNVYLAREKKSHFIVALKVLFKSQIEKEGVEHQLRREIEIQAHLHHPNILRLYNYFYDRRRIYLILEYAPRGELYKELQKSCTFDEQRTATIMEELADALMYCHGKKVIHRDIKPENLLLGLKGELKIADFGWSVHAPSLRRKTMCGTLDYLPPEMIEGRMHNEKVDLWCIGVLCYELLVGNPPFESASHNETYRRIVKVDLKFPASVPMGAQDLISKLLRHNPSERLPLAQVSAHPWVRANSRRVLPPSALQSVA
Chain of Platelet-derived growth factor receptor alpha (P16234 whole entry): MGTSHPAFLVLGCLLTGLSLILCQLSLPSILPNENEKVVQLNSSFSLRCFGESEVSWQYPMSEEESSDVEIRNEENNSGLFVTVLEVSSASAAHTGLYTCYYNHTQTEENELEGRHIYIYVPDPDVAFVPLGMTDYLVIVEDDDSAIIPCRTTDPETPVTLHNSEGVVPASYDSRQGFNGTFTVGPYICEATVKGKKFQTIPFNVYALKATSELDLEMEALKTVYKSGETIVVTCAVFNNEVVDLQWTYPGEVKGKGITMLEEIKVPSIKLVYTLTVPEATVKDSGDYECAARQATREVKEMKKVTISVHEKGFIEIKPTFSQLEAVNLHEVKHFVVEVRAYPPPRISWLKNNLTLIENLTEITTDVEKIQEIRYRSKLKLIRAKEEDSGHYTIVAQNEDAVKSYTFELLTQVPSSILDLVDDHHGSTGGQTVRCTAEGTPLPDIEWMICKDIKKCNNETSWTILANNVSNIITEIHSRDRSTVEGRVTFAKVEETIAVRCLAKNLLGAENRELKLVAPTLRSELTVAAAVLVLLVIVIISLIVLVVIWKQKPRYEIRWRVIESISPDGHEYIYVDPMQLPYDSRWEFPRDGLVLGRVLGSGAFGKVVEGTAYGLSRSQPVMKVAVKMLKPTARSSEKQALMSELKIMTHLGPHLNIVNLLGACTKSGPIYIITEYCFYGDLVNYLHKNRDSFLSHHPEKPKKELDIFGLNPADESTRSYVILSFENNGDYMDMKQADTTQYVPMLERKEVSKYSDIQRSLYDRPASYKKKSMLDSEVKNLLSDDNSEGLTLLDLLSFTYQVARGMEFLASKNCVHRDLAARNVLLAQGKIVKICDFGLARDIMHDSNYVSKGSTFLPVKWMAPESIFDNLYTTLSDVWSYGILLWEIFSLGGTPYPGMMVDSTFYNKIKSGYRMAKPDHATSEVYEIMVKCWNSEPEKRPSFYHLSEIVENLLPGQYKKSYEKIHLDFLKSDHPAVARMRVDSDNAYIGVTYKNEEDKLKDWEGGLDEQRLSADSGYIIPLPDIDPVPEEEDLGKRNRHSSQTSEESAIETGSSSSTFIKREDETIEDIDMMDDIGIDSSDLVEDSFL
Chain of Mitogen-activated protein kinase 1 (P28482 whole entry): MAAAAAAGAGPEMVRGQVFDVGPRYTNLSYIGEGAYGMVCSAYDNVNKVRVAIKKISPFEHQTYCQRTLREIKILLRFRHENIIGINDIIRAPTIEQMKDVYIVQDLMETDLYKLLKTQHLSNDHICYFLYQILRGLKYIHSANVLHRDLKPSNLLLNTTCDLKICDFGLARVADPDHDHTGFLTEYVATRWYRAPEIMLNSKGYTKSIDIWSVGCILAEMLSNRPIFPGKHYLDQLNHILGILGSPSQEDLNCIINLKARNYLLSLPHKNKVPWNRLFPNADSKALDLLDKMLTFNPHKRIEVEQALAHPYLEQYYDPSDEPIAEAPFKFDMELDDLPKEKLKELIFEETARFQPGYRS
Chain of Cytochrome P450 2C9 (P11712 whole entry): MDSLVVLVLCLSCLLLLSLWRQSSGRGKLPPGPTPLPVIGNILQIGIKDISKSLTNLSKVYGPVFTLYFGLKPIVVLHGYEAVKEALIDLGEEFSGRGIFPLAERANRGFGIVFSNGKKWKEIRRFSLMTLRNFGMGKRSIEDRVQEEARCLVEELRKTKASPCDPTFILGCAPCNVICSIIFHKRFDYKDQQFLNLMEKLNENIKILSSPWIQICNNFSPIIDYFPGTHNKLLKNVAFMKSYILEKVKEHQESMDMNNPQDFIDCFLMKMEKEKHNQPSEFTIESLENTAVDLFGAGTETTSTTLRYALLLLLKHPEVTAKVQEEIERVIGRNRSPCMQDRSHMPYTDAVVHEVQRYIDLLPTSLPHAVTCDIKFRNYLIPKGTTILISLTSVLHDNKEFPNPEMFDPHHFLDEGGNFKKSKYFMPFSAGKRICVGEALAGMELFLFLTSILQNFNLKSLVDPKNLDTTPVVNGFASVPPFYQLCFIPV
Chain of Mitogen-activated protein kinase 14 (Q16539 whole entry): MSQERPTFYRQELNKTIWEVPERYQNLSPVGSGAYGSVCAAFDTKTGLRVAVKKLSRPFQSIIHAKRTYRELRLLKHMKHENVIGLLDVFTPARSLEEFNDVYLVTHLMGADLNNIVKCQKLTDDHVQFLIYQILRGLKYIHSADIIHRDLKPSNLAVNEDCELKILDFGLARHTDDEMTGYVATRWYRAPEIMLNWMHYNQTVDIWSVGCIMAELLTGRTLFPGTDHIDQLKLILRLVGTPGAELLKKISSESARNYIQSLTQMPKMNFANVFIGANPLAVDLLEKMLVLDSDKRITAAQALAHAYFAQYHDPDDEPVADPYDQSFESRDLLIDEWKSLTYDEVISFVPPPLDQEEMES
Chain of Ribosomal protein S6 kinase alpha-1 (Q15418 whole entry): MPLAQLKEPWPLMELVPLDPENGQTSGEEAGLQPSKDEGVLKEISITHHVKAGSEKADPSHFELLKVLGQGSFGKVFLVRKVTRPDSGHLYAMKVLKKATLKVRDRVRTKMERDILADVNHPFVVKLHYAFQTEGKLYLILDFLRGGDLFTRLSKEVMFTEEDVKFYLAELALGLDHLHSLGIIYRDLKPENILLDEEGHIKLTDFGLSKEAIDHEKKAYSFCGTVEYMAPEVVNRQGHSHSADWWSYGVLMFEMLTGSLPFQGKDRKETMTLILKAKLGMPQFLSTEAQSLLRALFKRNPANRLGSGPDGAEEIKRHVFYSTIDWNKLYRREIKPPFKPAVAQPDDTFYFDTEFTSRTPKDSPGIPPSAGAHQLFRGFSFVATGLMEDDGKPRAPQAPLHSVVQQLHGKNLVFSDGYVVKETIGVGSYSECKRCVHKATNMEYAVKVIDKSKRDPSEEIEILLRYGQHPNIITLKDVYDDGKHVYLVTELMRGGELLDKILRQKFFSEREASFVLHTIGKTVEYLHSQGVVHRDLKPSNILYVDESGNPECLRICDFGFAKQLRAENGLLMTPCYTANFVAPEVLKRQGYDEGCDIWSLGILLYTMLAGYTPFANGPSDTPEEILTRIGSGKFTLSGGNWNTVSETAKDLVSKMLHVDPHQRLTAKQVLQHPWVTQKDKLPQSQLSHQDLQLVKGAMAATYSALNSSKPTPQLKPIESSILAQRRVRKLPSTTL
Chain of Proto-oncogene tyrosine-protein kinase Src (P12931 2-536 limits assumed): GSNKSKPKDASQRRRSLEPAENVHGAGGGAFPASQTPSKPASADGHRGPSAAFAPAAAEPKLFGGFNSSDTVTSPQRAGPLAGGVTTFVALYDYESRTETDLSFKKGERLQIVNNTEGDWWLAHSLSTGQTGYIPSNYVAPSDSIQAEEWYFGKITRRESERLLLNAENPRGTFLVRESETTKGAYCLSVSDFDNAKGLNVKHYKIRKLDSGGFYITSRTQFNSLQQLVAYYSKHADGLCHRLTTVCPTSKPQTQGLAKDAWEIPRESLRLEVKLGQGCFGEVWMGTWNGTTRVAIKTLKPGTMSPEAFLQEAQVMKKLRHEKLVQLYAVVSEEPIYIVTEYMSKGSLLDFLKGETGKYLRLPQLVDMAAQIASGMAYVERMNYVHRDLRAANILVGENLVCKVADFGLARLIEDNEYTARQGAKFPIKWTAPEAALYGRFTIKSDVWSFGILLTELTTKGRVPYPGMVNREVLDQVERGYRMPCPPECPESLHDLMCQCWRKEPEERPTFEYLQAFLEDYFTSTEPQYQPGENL
Chain of MAP kinase-activated protein kinase 2 (P49137 whole entry): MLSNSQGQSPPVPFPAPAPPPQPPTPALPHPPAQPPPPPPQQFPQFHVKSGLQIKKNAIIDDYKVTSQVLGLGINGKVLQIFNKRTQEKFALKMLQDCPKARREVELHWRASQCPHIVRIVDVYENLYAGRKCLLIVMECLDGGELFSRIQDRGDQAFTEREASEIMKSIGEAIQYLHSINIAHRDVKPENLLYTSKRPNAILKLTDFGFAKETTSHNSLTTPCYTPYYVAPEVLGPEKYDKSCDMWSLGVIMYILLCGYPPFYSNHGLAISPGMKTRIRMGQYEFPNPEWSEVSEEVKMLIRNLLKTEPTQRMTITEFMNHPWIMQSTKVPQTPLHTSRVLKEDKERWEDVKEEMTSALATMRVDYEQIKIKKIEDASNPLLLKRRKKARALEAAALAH

Compound: C[C@@H](Nc1c(N(C)c2ccncc2)c(=O)c1=O)c1ccccc1
- pIC50 [1]: < 4.00

Compound: C[C@H](c1ccccc1)N(C)c1c(Nc2ccncc2)c(=O)c1=O
- pIC50 [1]: < 4.00

Compound: CC(Nc1c(Nc2ccncc2)c(=O)c1=O)c1cccc(O)c1 (configuration not stated)
- pIC50 (THP-1): 4.47

Compound: C[C@@H](Nc1c(Nc2ccncn2)c(=O)c1=O)c1ccccc1
- pIC50 [1]: < 4.00

Compound: C[C@@H](Nc1c(Nc2ccncc2)c(=O)c1=O)c1ccccc1
- pIC50 (THP-1): 4.97
- pIC50 [2]: 4.39
- pIC50 [3]: 6.09
- pIC50 [4]: < 4.30
- pIC50 [5]: < 4.30
- pIC50 (Cytochrome P450 2D6): 5.48
- pIC50 [6]: < 4.30
- pIC50 (Cytochrome P450 2C9): 6.22
- pIC50 [7]: < 4.30
- pIC50 (Cytochrome P450 3A4): 5.89
- pIC50 [8]: < 4.30

Compound: NC(=O)C(Nc1c(Nc2ccncc2)c(=O)c1=O)c1ccccc1 (configuration not stated)
- pIC50 (THP-1): < 4.40
- pIC50 [1]: 5.35
- pIC50 (Aurora kinase B): 5.22
- pIC50 [2]: 4.36
- pIC50 [3]: 6.11
- pIC50 [4]: < 4.30
- pIC50 [9]: 6.28
- pIC50 (Cytochrome P450 2D6): < 5.00
- pIC50 [6]: < 4.30
- pIC50 (Cytochrome P450 2C9): 5.29
- pIC50 [7]: < 4.30
- pIC50 [10]: 5.20
- pIC50 (Cytochrome P450 3A4): 5.07
- pIC50 [8]: < 4.30

Compound: C[C@@H](Nc1c(Nc2cccnc2)c(=O)c1=O)c1ccccc1
- inhibition at 3 µM (CYP2C9): 1%
- pIC50 [1]: < 4.00
- inhibition at 3 µM (CYP3A4): 16%
- inhibition at 3 µM (CYP2D6): 26%

Compound: C[C@@H](Nc1c(Nc2ccnc(-c3ccco3)c2)c(=O)c1=O)c1ccccc1
- pIC50 (THP-1): 5.68
- pIC50 [1]: 5.28
- pIC50 (Aurora kinase B): 5.06
- pIC50 [2]: 4.57
- pIC50 [11]: < 4.30
- pIC50 [3]: < 4.30
- pIC50 [4]: < 4.30
- pIC50 [9]: 5.31
- pIC50 [5]: < 4.30
- pIC50 [6]: < 4.30
- pIC50 [7]: < 4.30
- pIC50 [10]: 4.46
- pIC50 [8]: < 4.30

Compound: C[C@@H](Nc1c(Nc2ccnc(Nc3ccncn3)c2)c(=O)c1=O)c1ccccc1
- pIC50 (THP-1): 5.96

Compound: NC(=O)C(Nc1c(Nc2ccncc2)c(=O)c1=O)c1cccc(O)c1 (configuration not stated)
- pIC50 (THP-1): 4.77
- pIC50 [1]: 6.41
- pIC50 (Aurora kinase B): 5.85
- pIC50 [2]: 4.95
- pIC50 [11]: 7.22
- pIC50 [3]: 6.54
- pIC50 [4]: < 4.30
- pIC50 [9]: 6.80
- pIC50 [5]: 4.47
- pIC50 (Cytochrome P450 2D6): < 5.00
- pIC50 [6]: < 4.30
- pIC50 (Cytochrome P450 2C9): 5.19
- pIC50 [7]: < 4.30
- pIC50 [10]: 5.38
- pIC50 (Cytochrome P450 3A4): < 5.00
- pIC50 [8]: < 4.30

Compound: C[C@@H](Nc1c(Nc2ccnc(-c3ccccc3F)c2)c(=O)c1=O)c1ccccc1
- pIC50 (THP-1): 5.66
- pIC50 [1]: 5.24
- pIC50 (Aurora kinase B): < 4.30
- pIC50 [2]: < 4.30
- pIC50 [11]: < 4.30
- pIC50 [3]: < 4.30
- pIC50 [4]: < 4.30
- pIC50 [9]: < 4.30
- pIC50 [5]: < 4.30
- pIC50 [6]: 4.66
- pIC50 [7]: < 4.30
- pIC50 [10]: < 4.30
- pIC50 [8]: < 4.30

Compound: C[C@@H](Nc1c(Nc2ccn[nH]2)c(=O)c1=O)c1ccccc1
- pIC50 [1]: < 4.00
- pIC50 (Cytochrome P450 2C9): 4.92
- pIC50 (Cytochrome P450 3A4): 4.40

Compound: C[C@@H](Nc1c(Nc2ccnc(-c3ccsc3)c2)c(=O)c1=O)c1ccccc1
- pIC50 [1]: 5.27
- pIC50 (Aurora kinase B): 4.97
- pIC50 [2]: 4.44
- pIC50 [11]: < 4.30
- pIC50 [3]: < 4.30
- pIC50 [4]: < 4.30
- pIC50 [9]: 4.94
- pIC50 [5]: < 4.30
- pIC50 [6]: < 4.30
- pIC50 [7]: < 4.30
- pIC50 [10]: < 4.30
- pIC50 [8]: 4.82

Compound: C[C@@H](Nc1c(Nc2ccnc(Cl)c2)c(=O)c1=O)c1ccccc1
- pIC50 [1]: < 4.00

From ChEMBL document CHEMBL1136863, “Identification and SAR of squarate inhibitors of mitogen activated protein kinase-activated protein kinase 2 (MK-2)” (Bioorg Med Chem, 2009)
